# Patent US9057076B2, “Compounds purified from blue roses” (SUNTORY HOLDINGS LIMITED, priority 2009, dated 2015)
# Tests used:
# [1] = Visual observation of color tone of isolated pigments; format: physicochemical
# Excerpt: The freeze-dried product, the blue pigment (1), the red pigment (2) and the blue pigment (3) obtained in the manner described above were visually observed for color tone.
# The blue pigment (1), the red pigment (2) and the blue pigment (3) were visually observed for color tone.
# [2] = Visible to ultraviolet absorption spectrum by HPLC with photodiode array detector; format: physicochemical; details: for λmax (absorption maximum): in 30% acetonitrile and 0.5% TFA, spectra 650 nm to 250 nm; for color compared with the compound of formula (II) of Patent Document 3: judged from the longer wavelength of the absorption maximum
# Description: The blue pigment (1), the red pigment (2) and the blue pigment (3) were analyzed by HPLC, and their absorption spectra at 650 nm to 250 nm in 30% acetonitrile and 0.5% TFA were measured with a photodiode array detector (see FIGS. 3, 5 and 7).
# HPLC was carried out by using a Shodex Asahipak ODP50 column (Showa Denko, 4.6 mm in diameter×25 cm) for the column and isocratic elution of a mobile phase consisting of 30% acetonitrile and 0.5% TFA at a flow rate of 0.6 ml/min. Detection was carried out by measuring the absorption spectra at 650 nm to 250 nm with a photodiode array detector (SPDM10Avp, Shimadzu) and monitoring the chromatogram at A560 nm.
# [3] = freeze-dried product from Lavande variety transfected with plasmid pSPB919 (Example 1)
# [4] = pigments from variety WKS82 transfected with plasmid pSPB130 (Example 3)
"color tone, visually observed [1, 3]","color tone, visually observed [1, 4]",λmax (absorption maximum) [2],color compared with the compound of formula (II) of Patent Document 3 [2],Compound
deep blue,deep blue,593 nm,deeper blue color,O=C(OC1C(O)OC2COC(=O)c3cc(Oc4c(-c5cc(O)c(O)c(O)c5)[o+]c5cc(O)cc6c5c4-c4c(C(=O)O)cc(O)c(O)c4O6)c(O)c(O)c3-c3c(cc(O)c(O)c3O)C(=O)O[C@H]2C1OC(=O)c1cc(O)c(O)c(O)c1)c1cc(O)c(O)c(O)c1 (some centres unmarked) [blue pigment (1)]
deep red,deep red,535 nm,–,O=c1oc2c(-c3cc(O)c(O)c(O)c3)[o+]c3cc(O)cc4c3c2c2c(c(O)c(O)cc12)O4 [red pigment (2)]
deep blue,deep blue,594 nm,deeper blue color,O=C(OC1C(OC(=O)c2cc(O)c(O)c(O)c2)[C@@H]2OC(=O)c3cc(O)c(O)c(O)c3-c3c(cc(Oc4c(-c5cc(O)c(O)c(O)c5)[o+]c5cc(O)cc6c5c4-c4ccc(O)c(O)c4O6)c(O)c3O)C(=O)OCC2O[C@H]1OC(=O)c1cc(O)c(O)c(O)c1)c1cc(O)c(O)c(O)c1 (some centres unmarked) [blue pigment (3)]
